In patent US20230321286A1, “PROTOCOL FOR MINIMIZING TOXICITY OF COMBINATION DOSAGES AND IMAGING AGENT FOR VERIFICATION” (priority 2018, published 2023):

Key:
MX-1 tumor xenografts = assay: Efficacy of PLX038A (PEG-SN38) in mice bearing MX-1 tumor xenografts; conditions: 137 µmole/kg irinotecan single dose
HT-29 xenograft = conditions: irinotecan control
Procedure: Varying doses of the unlabeled PEG~(SN-38)4 conjugate are injected into animals.

[1] = Plasma concentration of PLX038, released SN-38 and SN-38G in rats bearing HT29 tumor xenografts (HPLC with fluorescence monitoring); type: in vivo; conditions: rat with HT29 xenograft, ~200 mg/kg PLX038, conjugate
HT29 tumor xenografts = assay: Levels of conjugate and released SN-38 in tumor versus plasma, HT29 xenograft-bearing rats
[2] = 14 days post-dosing, single 200 mg/kg PLX038
[3] = administered dose 200 mg/kg PLX038

Structure (SMILES) | effect on tumor growth compared with vehicle (MX-1 tumor xenografts) | tumor inhibition relative to PLX038 (HT-29 xenograft) | gastrointestinal (GI) toxicity (HT-29 xenograft; rat HT-29 xenograft model, PLX038 single 200 mg/kg) | half-life in plasma / systemic circulation [1] [h] | accumulation in tumors (HT29 tumor xenografts; [2]) | serum levels (HT29 tumor xenografts; [2]) | concentration of released SN-38 in the tumor (HT29 tumor xenografts; [3]) | released SN-38 in the circulation (HT29 tumor xenografts; [3]) | conjugate / free drug in the plasma (HT29 tumor xenografts; lower dosages of PLX038) | conjugate / free drug in the tumor (HT29 tumor xenografts; lower dosages of PLX038)
CCc1c2c(nc3ccc(OC(=O)N4CCC(N5CCCCC5)CC4)cc13)-c1cc3c(c(=O)n1C2)COC(=O)[C@]3(O)CC [irinotecan] | only somewhat better than vehicle | near-equal tumor inhibition | significant GI toxicity |  |  |  |  |  |  | 
CCc1c2c(nc3ccc(O)cc13)-c1cc3c(c(=O)n1C2)COC(=O)[C@]3(O)CC [SN-38] |  |  |  | 50 | high accumulation | undetectable | about 80 pm/g | barely detectable | not detected in the plasma | significant concentrations
